From ChEMBL document CHEMBL1944511, “Bakuchiol derivatives as novel and potent cytotoxic agents: a report” (Eur J Med Chem, 2012)

Test system: HL-60
Assay: Induction of apoptosis in human HL60 cells assessed as loss of mitochondrial membrane potential at 5 uM after 24 hrs by rodamine-123 staining-based flow cytometric analysis (reference value: 6%)
Type: functional

Question: For CC[C@@]1(O)C(=O)OCc2c1cc1n(c2=O)Cc2cc3ccccc3nc2-1 [CAMPTOTHECIN], which Activity is on record?
Answer: 55.5%
